{"source": "PubChem BioAssay (NCI)", "experiment_in_all_cases": "NCI-60 cell line screen, 48 h", "key": {"SNB-19 CNS": {"system": "SNB-19 CNS"}, "TK-10 renal": {"system": "TK-10 renal"}, "786-0 renal": {"system": "786-0 renal"}, "CAKI-1 renal": {"system": "CAKI-1 renal"}, "ACHN renal": {"system": "ACHN renal"}, "UACC-62 melanoma": {"system": "UACC-62 melanoma"}, "COLO 205 colon": {"system": "COLO 205 colon"}, "SF-268 CNS": {"system": "SF-268 CNS"}, "PC-3 prostate": {"system": "PC-3 prostate"}, "SF-295 CNS": {"system": "SF-295 CNS"}, "NCI-H23 lung": {"system": "NCI-H23 lung"}, "NCI/ADR-RES ovarian": {"system": "NCI/ADR-RES ovarian"}, "OVCAR-8 ovarian": {"system": "OVCAR-8 ovarian"}, "MDA-MB-231 breast": {"system": "MDA-MB-231 breast"}, "A549 NSCLC": {"system": "A549 NSCLC"}, "RPMI-8226 leukemia": {"system": "RPMI-8226 leukemia"}, "NCI-H226 lung": {"system": "NCI-H226 lung"}, "NCI-H460 lung": {"system": "NCI-H460 lung"}, "UO-31 renal": {"system": "UO-31 renal"}, "SN12C renal": {"system": "SN12C renal"}, "SK-MEL-5 melanoma": {"system": "SK-MEL-5 melanoma"}, "IGROV1 ovarian": {"system": "IGROV1 ovarian"}, "OVCAR-4 ovarian": {"system": "OVCAR-4 ovarian"}, "M14 melanoma": {"system": "M14 melanoma"}, "MDA-MB-435": {"system": "MDA-MB-435"}, "HCT-15 colon": {"system": "HCT-15 colon"}, "MCF7 breast": {"system": "MCF7 breast"}, "RXF 393 renal": {"system": "RXF 393 renal"}, "SK-MEL-2 melanoma": {"system": "SK-MEL-2 melanoma"}}, "note": "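Grown in 96-well plates, cells were treated for 48 hours with each compound at five concentrations. Insufficient inhibition: endpoint recorded as highest concentration tested. GI50 = concentration required for 50% inhibition of growth. At the TGI there is no net growth.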"}
{"smiles": "CC(=O)/C=C/c1cccc2c1C(=O)NC(C)(c1cc3cc(Br)ccc3oc1=O)N2", "note": "(stereo not drawn)", "values": [{"measurement": "GI50", "setting": "SNB-19 CNS", "value": 12.5, "unit": "µM"}, {"measurement": "TGI", "setting": "SNB-19 CNS", "value": 25.1, "unit": "µM"}, {"measurement": "GI50", "setting": "TK-10 renal", "value": 24.5, "unit": "µM"}, {"measurement": "TGI", "setting": "TK-10 renal", "value": 89.6, "unit": "µM"}, {"measurement": "GI50", "setting": "786-0 renal", "value": 13.4, "unit": "µM"}, {"measurement": "TGI", "setting": "786-0 renal", "value": 32, "unit": "µM"}, {"measurement": "GI50", "setting": "CAKI-1 renal", "value": 3.87, "unit": "µM"}, {"measurement": "TGI", "setting": "CAKI-1 renal", "value": 28.5, "unit": "µM"}, {"measurement": "GI50", "setting": "ACHN renal", "value": 5.02, "unit": "µM"}, {"measurement": "TGI", "setting": "ACHN renal", "value": "> 100", "unit": "µM"}, {"measurement": "GI50", "setting": "UACC-62 melanoma", "value": 7.01, "unit": "µM"}, {"measurement": "TGI", "setting": "UACC-62 melanoma", "value": 21.3, "unit": "µM"}, {"measurement": "GI50", "setting": "COLO 205 colon", "value": 19.6, "unit": "µM"}, {"measurement": "TGI", "setting": "COLO 205 colon", "value": 40.9, "unit": "µM"}, {"measurement": "GI50", "setting": "SF-268 CNS", "value": 12.4, "unit": "µM"}, {"measurement": "TGI", "setting": "SF-268 CNS", "value": 48.3, "unit": "µM"}, {"measurement": "GI50", "setting": "PC-3 prostate", "value": 5.95, "unit": "µM"}, {"measurement": "TGI", "setting": "PC-3 prostate", "value": 39.1, "unit": "µM"}, {"measurement": "GI50", "setting": "SF-295 CNS", "value": 11.1, "unit": "µM"}, {"measurement": "TGI", "setting": "SF-295 CNS", "value": 25.4, "unit": "µM"}, {"measurement": "GI50", "setting": "NCI-H23 lung", "value": 11.9, "unit": "µM"}, {"measurement": "TGI", "setting": "NCI-H23 lung", "value": 26.4, "unit": "µM"}, {"measurement": "GI50", "setting": "NCI/ADR-RES ovarian", "value": 15, "unit": "µM"}, {"measurement": "TGI", "setting": "NCI/ADR-RES ovarian", "value": 44.5, "unit": "µM"}, {"measurement": "GI50", "setting": "OVCAR-8 ovarian", "value": 10.1, "unit": "µM"}, {"measurement": "TGI", "setting": "OVCAR-8 ovarian", "value": "> 100", "unit": "µM"}, {"measurement": "GI50", "setting": "MDA-MB-231 breast", "value": 7.35, "unit": "µM"}, {"measurement": "TGI", "setting": "MDA-MB-231 breast", "value": 39.6, "unit": "µM"}, {"measurement": "GI50", "setting": "A549 NSCLC", "value": 23.5, "unit": "µM"}, {"measurement": "TGI", "setting": "A549 NSCLC", "value": "> 100", "unit": "µM"}, {"measurement": "GI50", "setting": "RPMI-8226 leukemia", "value": 4.04, "unit": "µM"}, {"measurement": "TGI", "setting": "RPMI-8226 leukemia", "value": 33.8, "unit": "µM"}, {"measurement": "GI50", "setting": "NCI-H226 lung", "value": 13.6, "unit": "µM"}, {"measurement": "TGI", "setting": "NCI-H226 lung", "value": 58.6, "unit": "µM"}, {"measurement": "GI50", "setting": "NCI-H460 lung", "value": 15.7, "unit": "µM"}, {"measurement": "TGI", "setting": "NCI-H460 lung", "value": 67.6, "unit": "µM"}, {"measurement": "GI50", "setting": "UO-31 renal", "value": 3.59, "unit": "µM"}, {"measurement": "TGI", "setting": "UO-31 renal", "value": 19.1, "unit": "µM"}, {"measurement": "GI50", "setting": "SN12C renal", "value": 6.57, "unit": "µM"}, {"measurement": "TGI", "setting": "SN12C renal", "value": 24.6, "unit": "µM"}, {"measurement": "GI50", "setting": "SK-MEL-5 melanoma", "value": 9.78, "unit": "µM"}, {"measurement": "TGI", "setting": "SK-MEL-5 melanoma", "value": 21.6, "unit": "µM"}, {"measurement": "GI50", "setting": "IGROV1 ovarian", "value": 8.12, "unit": "µM"}, {"measurement": "TGI", "setting": "IGROV1 ovarian", "value": 32.9, "unit": "µM"}, {"measurement": "GI50", "setting": "OVCAR-4 ovarian", "value": 11.5, "unit": "µM"}, {"measurement": "TGI", "setting": "OVCAR-4 ovarian", "value": "> 100", "unit": "µM"}, {"measurement": "GI50", "setting": "M14 melanoma", "value": 9.29, "unit": "µM"}, {"measurement": "TGI", "setting": "M14 melanoma", "value": 25.3, "unit": "µM"}, {"measurement": "GI50", "setting": "MDA-MB-435", "value": 10.6, "unit": "µM"}, {"measurement": "TGI", "setting": "MDA-MB-435", "value": 30.9, "unit": "µM"}, {"measurement": "GI50", "setting": "HCT-15 colon", "value": 10.6, "unit": "µM"}, {"measurement": "TGI", "setting": "HCT-15 colon", "value": 32.4, "unit": "µM"}, {"measurement": "GI50", "setting": "MCF7 breast", "value": 10.7, "unit": "µM"}, {"measurement": "TGI", "setting": "MCF7 breast", "value": 32.4, "unit": "µM"}, {"measurement": "GI50", "setting": "RXF 393 renal", "value": 2.33, "unit": "µM"}, {"measurement": "TGI", "setting": "RXF 393 renal", "value": 10.7, "unit": "µM"}, {"measurement": "GI50", "setting": "SK-MEL-2 melanoma", "value": 10.2, "unit": "µM"}, {"measurement": "TGI", "setting": "SK-MEL-2 melanoma", "value": 27.3, "unit": "µM"}]}
